System: 883617-216-R-J1-PDC complex spheroid viability
Experiment: Anticancer human tumor 883617-216-R-J1-PDC patient-derived bladder carcinoma cell line growth inhibition [POLQ]
Details: for IC50: curve of first compound; for viability, T/C: stronger effect = lower value
Experimental: Multicellular complex tumor spheroid response to Polymerase (POL) inhibitors (novobiocin, ART-558, RP6685) in combination with a variety of drugs and investigational agents in selected tumor cell lines
The POL inhibitors (novobiocin, ART-558, and RP6685) were evaluated both individually and in combination with standard of care and investigational anticancer small molecules within a complex spheroid model of solid tumors. . Complex spheroids include a stromal component modeled by human endothelial cells (HUVEC) and fibroblasts modeled by human mesenchymal stem cells (MSCs). The concentration ranges selected for each drug and investigational agent were based upon clinically achievable concentrations if the clinical Cmax of the agent was known.
Compounds. The drugs and investigational agents: novobiocin (NSC847541), ART-558 (NSC835418), RP-6685 (NSC848927), peposertib (NSC802822), ceralasertib (NSC780249), elimusertib (NSC800525), camonsertib (NSC841442), AZD-1390 (NSC803789), olaparib (NSC753686), talazoparib (NSC767125), rucaparib (NSC756644), sotorasib (NSC818433), MRTX-1133 (NSC836407), SN-38 (NSC673596), topotecan (NSC609699), epotoside (NSC141540), doxorubicin (NSC123127), gemcitabine (NSC613327), 5-fluorouracil (NSC19893), paclitaxel (NSC125973), vemurafenib (NSC761431), MSA-2 (NSC828583), SN-011 (NSC837082), adavosertib (NSC754352), prexasertib (NSC758257), carboplatin (NSC241240) and oxaliplatin (NSC266046), were obtained from the National Cancer Institute (NCI) Developmental Therapeutics Program Chemical Repository (21). The FDA-approved anticancer drug set is available from the Developmental Therapeutics Program at https://dtp.cancer.gov/organization/dscb/obtaining/. […] The stock solutions were prepared in dimethyl sulfoxide (DMSO, Sigma-Aldrich, St. Louis, MO, cat. D2650), except for the platinum compounds which were prepared in saline (Quality Biological, Gaithersburg, MD, cat. 114-055-101), at 800-fold the tested concentration and stored at -70 degrees C prior to their use. All drugs and investigational agents were tested over a range starting from a high concentration at or near the clinical Cmax and decreasing in half-log increments. If the clinical Cmax for an agent had not been determined, the highest concentration tested was 10 microM, except for SN-38, which was tested at a high concentration of 1 microM.
Cell Culture. All cells were maintained in an incubator at 37 degrees C and 5% CO2 with 95% humidity. The PDC lines were cultured according to standard operating procedures established by the NCI PDMR (https://pdmr.cancer.gov). Table 3 of the manuscript, lists the cell lines along with the number of the three cell types plated to form the mct-spheroids and media for tumor cell growth. After thawing, all PDC lines, except 997537-175-T-J1-PDC and 415267-285-R-J2-PDC, were cultured in Matrigel-coated flasks prepared with a working solution of 1X Ham's F-12 nutrient mix, without supplementation (Thermo Fisher Scientific, cat. 11765054), 100 U/mL penicillin-streptomycin (Thermo Fisher Scientific, cat. 15140122), and 2.5% Matrigel (Corning Inc., Corning, NY, cat. 354248) for the first three passages. The two PDC lines 997537-175-T-J1-PDC and 415267-285-R-J2-PDC were cultured on uncoated flasks. The 857933-349-R-J2-PDC line was cultured in 6C/Colon 1B media containing advanced DMEM/F-12 (Thermo Fisher Scientific, cat. 12634028), 10 mM HEPES (Thermo Fisher Scientific, cat. 15630080), 1X GlutaMAX supplement (Thermo Fisher Scientific, cat. 35050061), 0.1 mg/mL primocin (InvivoGen, San Diego, CA, cat. ant-pm-2), 10% defined fetal bovine serum, heat inactivated (HyClone Laboratories Inc., Logan, UT, cat. SH30070.03HI), 50% L-WRN conditioned media (ATCC, cat. CRL-3276), 1.25 mM N-Acetyl-L-cysteine (Sigma-Aldrich, cat. A9165), 10 mM nicotinamide (Sigma-Aldrich, cat. N0636), 1X B-27 supplement (Thermo Fisher Scientific, cat. 17504044), 1X N-2 supplement (Thermo Fisher Scientific, cat. […]

[1] = second compound 0.0316 µM, first compound 0.0316 µM
[2] = second compound 0.0316 µM, first compound 0.1 µM
[3] = second compound 0.0316 µM, first compound 0.316 µM
[4] = second compound 0.0316 µM, first compound 1 µM
[5] = second compound 0.1 µM, first compound 0.0316 µM
[6] = second compound 0.1 µM, first compound 0.1 µM
[7] = second compound 0.1 µM, first compound 0.316 µM
[8] = second compound 0.1 µM, first compound 1 µM
[9] = second compound 0.316 µM, first compound 0.0316 µM
[10] = second compound 0.316 µM, first compound 0.1 µM
[11] = second compound 0.316 µM, first compound 0.316 µM
[12] = second compound 0.316 µM, first compound 1 µM
[13] = second compound 1 µM, first compound 0.0316 µM
[14] = second compound 1 µM, first compound 0.1 µM
[15] = second compound 1 µM, first compound 0.316 µM
[16] = second compound 1 µM, first compound 1 µM
[17] = second compound 3.16 µM, first compound 0.0316 µM
[18] = second compound 3.16 µM, first compound 0.1 µM
[19] = second compound 3.16 µM, first compound 0.316 µM
[20] = second compound 3.16 µM, first compound 1 µM
[21] = second compound 10 µM, first compound 0.0316 µM
[22] = second compound 10 µM, first compound 0.1 µM
[23] = second compound 10 µM, first compound 0.316 µM
[24] = second compound 10 µM, first compound 1 µM
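Also: spheroids exposed to compounds for seven days before readout.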
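For viability, T/C in this document: 100% = DMSO vehicle control viability.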

**Q.** For `C=CCn1c(=O)c2cnc(Nc3ccc(N4CCN(C)CC4)cc3)nc2n1-c1cccc(C(C)(C)O)n1` + COC1C(OC(N)=O)C(O)C(Oc2ccc3c(O)c(NC(=O)c4ccc(O)c(CC=C(C)C)c4)c(=O)oc3c2C)OC1(C)C, which IC50 (second compound 0.0316 µM) is on record?
**A.** 916 nM

**Q.** What about the IC50 (second compound 0.1 µM) of the same molecule?
**A.** 811 nM

**Q.** What about the IC50 (second compound 0.316 µM) of the same molecule?
**A.** 945 nM

**Q.** What about the IC50 (second compound 1 µM) of the same molecule?
**A.** 889 nM

**Q.** And the IC50 (second compound 3.16 µM)?
**A.** 883 nM

**Q.** What about the IC50 (second compound 10 µM) of the same molecule?
**A.** 820 nM

**Q.** What about the viability, T/C (second compound 0.0316 µM, first compound 0.00316 µM) of the same molecule?
**A.** 113%

**Q.** What about the viability, T/C (second compound 0.0316 µM, first compound 0.01 µM) of the same molecule?
**A.** 97.9%

**Q.** And the viability, T/C [1]?
**A.** 112%

**Q.** What about the viability, T/C [2] of the same molecule?
**A.** 94.7%

**Q.** What about the viability, T/C [3] of the same molecule?
**A.** 84.6%

**Q.** And the viability, T/C [4]?
**A.** 47%

**Q.** And the viability, T/C (second compound 0.1 µM, first compound 0.00316 µM)?
**A.** 101%

**Q.** What about the viability, T/C (second compound 0.1 µM, first compound 0.01 µM) of the same molecule?
**A.** 91.9%

**Q.** And the viability, T/C [5]?
**A.** 98.9%

**Q.** And the viability, T/C [6]?
**A.** 120%

**Q.** And the viability, T/C [7]?
**A.** 85.9%

**Q.** What about the viability, T/C [8] of the same molecule?
**A.** 42%

**Q.** And the viability, T/C (second compound 0.316 µM, first compound 0.00316 µM)?
**A.** 121%

**Q.** And the viability, T/C (second compound 0.316 µM, first compound 0.01 µM)?
**A.** 99.8%

**Q.** And the viability, T/C [9]?
**A.** 104%

**Q.** And the viability, T/C [10]?
**A.** 107%

**Q.** What about the viability, T/C [11] of the same molecule?
**A.** 77.8%

**Q.** What about the viability, T/C [12] of the same molecule?
**A.** 48.6%

**Q.** What about the viability, T/C (second compound 1 µM, first compound 0.00316 µM) of the same molecule?
**A.** 103%

**Q.** What about the viability, T/C (second compound 1 µM, first compound 0.01 µM) of the same molecule?
**A.** 95.2%

**Q.** What about the viability, T/C [13] of the same molecule?
**A.** 105%

**Q.** What about the viability, T/C [14] of the same molecule?
**A.** 112%

**Q.** And the viability, T/C [15]?
**A.** 92.2%

**Q.** What about the viability, T/C [16] of the same molecule?
**A.** 45.2%

**Q.** And the viability, T/C (second compound 3.16 µM, first compound 0.00316 µM)?
**A.** 106%

**Q.** What about the viability, T/C (second compound 3.16 µM, first compound 0.01 µM) of the same molecule?
**A.** 101%

**Q.** And the viability, T/C [17]?
**A.** 98.6%

**Q.** What about the viability, T/C [18] of the same molecule?
**A.** 104%

**Q.** What about the viability, T/C [19] of the same molecule?
**A.** 90%

**Q.** What about the viability, T/C [20] of the same molecule?
**A.** 44.8%

**Q.** What about the viability, T/C (second compound 10 µM, first compound 0.00316 µM) of the same molecule?
**A.** 104%

**Q.** What about the viability, T/C (second compound 10 µM, first compound 0.01 µM) of the same molecule?
**A.** 87.1%

**Q.** And the viability, T/C [21]?
**A.** 105%

**Q.** And the viability, T/C [22]?
**A.** 91.6%

**Q.** And the viability, T/C [23]?
**A.** 84%

**Q.** What about the viability, T/C [24] of the same molecule?
**A.** 42.8%

**Q.** With `CCCS(=O)(=O)Nc1ccc(F)c(C(=O)c2c[nH]c3ncc(-c4ccc(Cl)cc4)cc23)c1F` + COC1C(OC(N)=O)C(O)C(Oc2ccc3c(O)c(NC(=O)c4ccc(O)c(CC=C(C)C)c4)c(=O)oc3c2C)OC1(C)C as the molecule, how does the IC50 (second compound 0.0316 µM) read?
**A.** 8230 nM

**Q.** What about the IC50 (second compound 0.1 µM) of the same molecule?
**A.** 9580 nM

**Q.** What about the IC50 (second compound 0.316 µM) of the same molecule?
**A.** > 10000 nM

**Q.** And the IC50 (second compound 1 µM)?
**A.** 9070 nM

**Q.** And the IC50 (second compound 3.16 µM)?
**A.** > 10000 nM

**Q.** What about the IC50 (second compound 10 µM) of the same molecule?
**A.** 8990 nM

**Q.** And the viability, T/C [1]?
**A.** 90.3%

**Q.** And the viability, T/C [2]?
**A.** 103%

**Q.** What about the viability, T/C [3] of the same molecule?
**A.** 103%

**Q.** And the viability, T/C [4]?
**A.** 94.2%

**Q.** And the viability, T/C (second compound 0.0316 µM, first compound 3.16 µM)?
**A.** 84.6%

**Q.** What about the viability, T/C (second compound 0.0316 µM, first compound 10 µM) of the same molecule?
**A.** 42.9%

**Q.** What about the viability, T/C [5] of the same molecule?
**A.** 105%

**Q.** What about the viability, T/C [6] of the same molecule?
**A.** 119%

**Q.** What about the viability, T/C [7] of the same molecule?
**A.** 108%

**Q.** And the viability, T/C [8]?
**A.** 105%

**Q.** And the viability, T/C (second compound 0.1 µM, first compound 3.16 µM)?
**A.** 76.8%

**Q.** And the viability, T/C (second compound 0.1 µM, first compound 10 µM)?
**A.** 49%

**Q.** What about the viability, T/C [9] of the same molecule?
**A.** 102%

**Q.** And the viability, T/C [10]?
**A.** 102%

**Q.** What about the viability, T/C [11] of the same molecule?
**A.** 102%

**Q.** What about the viability, T/C [12] of the same molecule?
**A.** 103%

**Q.** What about the viability, T/C (second compound 0.316 µM, first compound 3.16 µM) of the same molecule?
**A.** 90%

**Q.** What about the viability, T/C (second compound 0.316 µM, first compound 10 µM) of the same molecule?
**A.** 50.1%

**Q.** And the viability, T/C [13]?
**A.** 103%

**Q.** And the viability, T/C [14]?
**A.** 93.9%

**Q.** What about the viability, T/C [15] of the same molecule?
**A.** 106%

**Q.** And the viability, T/C [16]?
**A.** 98.5%

**Q.** What about the viability, T/C (second compound 1 µM, first compound 3.16 µM) of the same molecule?
**A.** 100%

**Q.** What about the viability, T/C (second compound 1 µM, first compound 10 µM) of the same molecule?
**A.** 45.3%

**Q.** What about the viability, T/C [17] of the same molecule?
**A.** 94.8%

**Q.** What about the viability, T/C [18] of the same molecule?
**A.** 88%

**Q.** And the viability, T/C [19]?
**A.** 103%

**Q.** What about the viability, T/C [20] of the same molecule?
**A.** 105%

**Q.** What about the viability, T/C (second compound 3.16 µM, first compound 3.16 µM) of the same molecule?
**A.** 96.4%

**Q.** And the viability, T/C (second compound 3.16 µM, first compound 10 µM)?
**A.** 56.4%

**Q.** And the viability, T/C [21]?
**A.** 106%

**Q.** And the viability, T/C [22]?
**A.** 96.7%

**Q.** And the viability, T/C [23]?
**A.** 97.3%

**Q.** And the viability, T/C [24]?
**A.** 103%

**Q.** And the viability, T/C (second compound 10 µM, first compound 3.16 µM)?
**A.** 93.2%

**Q.** And the viability, T/C (second compound 10 µM, first compound 10 µM)?
**A.** 45.4%
